In ChEMBL document CHEMBL1201862, “PubChem BioAssay data set” (2004):
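48-hour exposure; five concentrations; linearly interpolated endpoints. The concentration for 50% growth inhibition is given as GI50.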 Active and inactive are the calls of the source. Rule as the data show it: active = GI50 up to about 1.1 µM and inactive = higher.

What was measured:
Test in all cases: NCI tumour cell line growth inhibition, 48 h
786-0 = test system: 786-0
COLO 205 = test system: COLO 205
HOP-92 = test system: HOP-92
HT-29 = test system: HT-29
Hs-578T = test system: Hs-578T
K562 = test system: K562
KM12 = test system: KM12
NCI-H226 = test system: NCI-H226
NCI-H522 = test system: NCI-H522
OVCAR-4 = test system: OVCAR-4
OVCAR-8 = test system: OVCAR-8
RPMI-8226 = test system: RPMI-8226
RXF 393 = test system: RXF 393
SF-539 = test system: SF-539
SK-MEL-2 = test system: SK-MEL-2
SN12C = test system: SN12C
SNB-19 = test system: SNB-19
SNB-75 = test system: SNB-75
T47D = test system: T47D
SR = test system: SR

Measured: GI50

CC(=O)c1ccc(O)c(CN(C2CCCCC2)C2CCCCC2)c1O
inactive: 786-0 > 100 µM | COLO 205 > 100 µM | HOP-92 > 100 µM | HT-29 > 100 µM | Hs-578T > 100 µM | K562 > 100 µM | KM12 > 100 µM | NCI-H226 > 100 µM | NCI-H522 > 100 µM | OVCAR-4 > 100 µM | OVCAR-8 > 100 µM | RPMI-8226 > 100 µM | RXF 393 > 100 µM | SF-539 > 100 µM | SK-MEL-2 > 100 µM | SN12C > 100 µM | SNB-19 > 100 µM | SNB-75 2.19 µM | T47D 21.6 µM

NP1(Oc2ccc(F)cc2)=NP(N)(Oc2ccc(F)cc2)=NP(Oc2ccc(F)cc2)(Oc2ccc(F)cc2)=N1 (configuration not stated)
inactive: 786-0 11 µM | COLO 205 6.64 µM | HOP-92 3.78 µM | HT-29 5.43 µM | Hs-578T 5.64 µM | KM12 4.19 µM | OVCAR-8 3.5 µM | RPMI-8226 4.59 µM | SF-539 14.5 µM | SN12C 6.18 µM | SNB-19 10.9 µM | SNB-75 3.67 µM | SR 4.56 µM | T47D 2.4 µM

ON=C(CC(O)(C(F)(F)Cl)C(F)(F)Cl)CC(O)(C(F)(F)Cl)C(F)(F)Cl
inactive: 786-0 5.21 µM | COLO 205 5.04 µM | HT-29 9.14 µM | Hs-578T 3.52 µM | K562 > 10 µM | KM12 8.38 µM | NCI-H226 4.07 µM | NCI-H522 3.21 µM | OVCAR-4 4.92 µM | OVCAR-8 6.9 µM | RPMI-8226 2.7 µM | RXF 393 2.7 µM | SF-539 2.07 µM | SK-MEL-2 3.03 µM | SN12C 4.67 µM | SNB-19 4.25 µM | SNB-75 6.61 µM | SR 4.58 µM | T47D 3.37 µM

Cc1cccc(-c2cccc(COCc3cccc(-c4cccc(CO)n4)n3)n2)n1
inactive: 786-0 38.5 µM | COLO 205 4.11 µM | HOP-92 47.2 µM | HT-29 40.8 µM | Hs-578T 35.7 µM | K562 > 50 µM | KM12 > 50 µM | NCI-H226 > 50 µM | NCI-H522 > 50 µM | OVCAR-4 > 50 µM | OVCAR-8 16.2 µM | RPMI-8226 33.3 µM | SF-539 > 50 µM | SK-MEL-2 > 50 µM | SN12C > 50 µM | SNB-19 > 50 µM | SNB-75 > 50 µM | SR > 50 µM | T47D 31.2 µM

COc1ccccc1N1C(=O)/C(=C\c2ccccc2)SC1c1cc(OC)c(OC)c(OC)c1 (configuration not stated)
inactive: 786-0 32.2 µM | COLO 205 35.9 µM | HOP-92 34.5 µM | HT-29 33.3 µM | Hs-578T 33.7 µM | K562 41.7 µM | KM12 32.1 µM | NCI-H226 > 100 µM | NCI-H522 22.2 µM | OVCAR-4 53.5 µM | OVCAR-8 42 µM | SK-MEL-2 7.06 µM | SN12C 17.6 µM | SNB-19 66.8 µM | SR 33.7 µM | T47D 5.97 µM

O=C(COc1ccccc1)N(C(=O)N1CCN(c2ccccc2)CC1)S(=O)(=O)c1ccccc1
inactive: 786-0 44.2 µM | COLO 205 > 100 µM | HOP-92 > 100 µM | HT-29 43.5 µM | Hs-578T > 100 µM | K562 33.8 µM | KM12 > 100 µM | NCI-H226 57.4 µM | NCI-H522 31.9 µM | OVCAR-4 > 100 µM | OVCAR-8 35.2 µM | SF-539 > 100 µM | SK-MEL-2 > 100 µM | SN12C 53 µM | SNB-19 83.2 µM | SNB-75 33.9 µM | SR 21.7 µM | T47D 34.8 µM

Cc1nc2ccccc2n1COC(Cn1ccnc1)c1ccc(Cl)cc1Cl (configuration not stated)
inactive: 786-0 75.7 µM | COLO 205 39.3 µM | HOP-92 23.3 µM | HT-29 62.2 µM | Hs-578T 81.7 µM | K562 42.8 µM | KM12 71.4 µM | NCI-H522 > 100 µM | OVCAR-4 30.4 µM | OVCAR-8 94 µM | RPMI-8226 35.2 µM | SF-539 > 100 µM | SK-MEL-2 64 µM | SN12C > 100 µM | SNB-19 > 100 µM | SNB-75 53.6 µM | SR 60.3 µM | T47D 41.7 µM

C=CCC(C(=O)Nc1cccc2nc[nH]c12)C(=O)OCC (configuration not stated)
inactive: 786-0 > 100 µM | HOP-92 > 100 µM | HT-29 > 100 µM | Hs-578T > 100 µM | K562 > 100 µM | KM12 > 100 µM | NCI-H226 > 100 µM | NCI-H522 > 100 µM | OVCAR-4 43.1 µM | OVCAR-8 > 100 µM | RPMI-8226 > 100 µM | SF-539 > 100 µM | SK-MEL-2 > 100 µM | SN12C > 100 µM | SNB-19 > 100 µM | SNB-75 > 100 µM | SR > 100 µM | T47D > 100 µM

Nc1ccccc1C(=O)CC1OC(=O)c2ccccc21 (configuration not stated)
inactive: 786-0 88.5 µM | HOP-92 > 100 µM | HT-29 > 100 µM | Hs-578T 46.8 µM | K562 > 100 µM | KM12 33.4 µM | NCI-H226 > 100 µM | NCI-H522 > 100 µM | OVCAR-4 65.5 µM | OVCAR-8 51.5 µM | RPMI-8226 38.1 µM | SF-539 36 µM | SK-MEL-2 14 µM | SN12C > 100 µM | SNB-19 42.1 µM | SNB-75 23 µM | SR 46.5 µM | T47D 81.8 µM

Oc1[nH]c(Nc2ccc(Cl)c(C(F)(F)F)c2)nc2ncnc1-2
inactive: 786-0 25.7 µM | COLO 205 27.2 µM | HOP-92 58.5 µM | HT-29 33 µM | Hs-578T 38.5 µM | K562 39.6 µM | KM12 44.8 µM | NCI-H226 > 100 µM | NCI-H522 14.2 µM | OVCAR-4 72.1 µM | OVCAR-8 31.8 µM | RPMI-8226 > 100 µM | RXF 393 26.1 µM | SF-539 26 µM | SK-MEL-2 25.5 µM | SN12C 32.5 µM | SNB-19 45.1 µM | SNB-75 33.9 µM | T47D 24.5 µM

CNc1c2c(c3nc4ccccc4c4c3c1N=C4)NCCC2=O [PLAKINIDINE A]
inactive: 786-0 2.41 µM | COLO 205 2.82 µM | HOP-92 4.51 µM | HT-29 2.23 µM | Hs-578T > 10 µM | K562 2.43 µM | KM12 4.79 µM | NCI-H226 7.43 µM | NCI-H522 3.27 µM | OVCAR-4 7.83 µM | OVCAR-8 2.38 µM | RPMI-8226 2.57 µM | RXF 393 5.41 µM | SF-539 3.9 µM | SK-MEL-2 > 10 µM | SN12C 4.22 µM | SNB-19 > 10 µM | SNB-75 2.87 µM | T47D 3.78 µM
